Results taken from ChEMBL document CHEMBL1201862, “PubChem BioAssay data set” (2004).
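Test compounds were applied to cells in 96-well plates for 48 hours at 5 doses. At the GI50, growth is halved.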 Activity calls are given as the source filed them. Rule as the data show it: active = GI50 up to about 1.1 µM and inactive = higher.

Columns and labels:
Assay in all cases: growth of human tumour cells (NCI), 48 h
[1] = tested on: DMS-114
[2] = tested on: M19-MEL
[3] = tested on: HOP-18
[4] = tested on: LXFL 529
[5] = tested on: DMS-273
[6] = tested on: KM-20L2
[7] = tested on: RXF 631
[8] = tested on: XF498
[9] = tested on: SNB-78

Compound	GI50 [1]	GI50 [2]	GI50 [3]	GI50 [4]	GI50 [5]	GI50 [6]	GI50 [7]	GI50 [8]	GI50 [9]
CN(C)c1ccc(/C=C2\C=Cc3ccccc32)cc1	22.1 µM (inactive)	> 100 µM (inactive)	> 100 µM (inactive)	56.4 µM (inactive)	36.7 µM (inactive)	42.6 µM (inactive)	–	–	–
CCOC(=O)NC(=O)c1cn(CCCOC(=O)CCCCCCCCC(=O)OCCCn2cc(C(=O)NC(=O)OCC)c(=O)n(C)c2=O)c(=O)n(C)c1=O	> 100 µM (inactive)	> 100 µM (inactive)	> 100 µM (inactive)	> 100 µM (inactive)	> 100 µM (inactive)	> 100 µM (inactive)	> 80.7 µM (inactive)	> 54.3 µM (inactive)	–
COC(=O)c1ccc(C(=O)OC)c2nc3cc(Cl)ccc3nc12	> 100 µM (inactive)	> 100 µM (inactive)	> 100 µM (inactive)	> 100 µM (inactive)	> 100 µM (inactive)	> 100 µM (inactive)	> 100 µM (inactive)	> 100 µM (inactive)	–
CNS(=O)(=O)NNS(=O)(=O)c1cccc([N+](=O)[O-])c1	> 100 µM (inactive)	> 100 µM (inactive)	–	> 100 µM (inactive)	> 100 µM (inactive)	> 100 µM (inactive)	–	–	–
CC1(O)CC2(O)C=CC3=C(C(=O)c4cccc(O)c4C3=O)C2(O)C(=O)C1O (configuration not stated)	1.67 µM (inactive)	0.646 µM (active)	1.7 µM (inactive)	0.495 µM (active)	5.08 µM (inactive)	1.16 µM (inactive)	–	–	–
CCOC(=O)C1=C(C)N(NC(=O)Nc2ccccc2)C2(N)N(NC(=O)Nc3ccccc3)C(C)=C(C(=O)OCC)C12C#N (configuration not stated)	16.1 µM (inactive)	17.8 µM (inactive)	16.3 µM (inactive)	18.6 µM (inactive)	17 µM (inactive)	18.7 µM (inactive)	–	–	19.4 µM (inactive)
Cc1nc(O)nc(CC(O)(c2ccccc2)c2ccccc2)c1-c1ccccc1	80.5 µM (inactive)	> 100 µM (inactive)	> 100 µM (inactive)	> 100 µM (inactive)	> 100 µM (inactive)	> 100 µM (inactive)	> 100 µM (inactive)	–	> 100 µM (inactive)
Cn1c2cc([N+](=O)[O-])ccc2c(=O)c2c(O)cc3c(c21)C=CC(C)(C)O3	–	–	< 0.01 µM (active)	28.4 µM (inactive)	54 µM (inactive)	> 100 µM (inactive)	–	21 µM (inactive)	40.5 µM (inactive)
COc1ccc(/C=N/NC(=O)NCCNCCO)cc1	> 100 µM (inactive)	> 100 µM (inactive)	> 100 µM (inactive)	> 100 µM (inactive)	> 100 µM (inactive)	> 100 µM (inactive)	–	–	> 100 µM (inactive)
CCCC/C=C1\CCC(CN2CCCC2)C1=O (configuration not stated)	15.9 µM (inactive)	16.9 µM (inactive)	–	1.56 µM (inactive)	16.7 µM (inactive)	14.7 µM (inactive)	17.7 µM (inactive)	16.1 µM (inactive)	26.4 µM (inactive)
N#Cc1ccc(Nc2cnc3cc(N)ccc3n2)cc1	60.5 µM (inactive)	89.7 µM (inactive)	–	59.7 µM (inactive)	> 100 µM (inactive)	94 µM (inactive)	–	74.6 µM (inactive)	> 100 µM (inactive)
Cc1ccc(/C=C/C(=O)c2sc(-c3cccnc3)nc2C)cc1	–	> 100 µM (inactive)	> 100 µM (inactive)	–	> 100 µM (inactive)	> 100 µM (inactive)	> 100 µM (inactive)	–	> 100 µM (inactive)
NCCNc1cccc2ccccc12	> 100 µM (inactive)	> 100 µM (inactive)	> 100 µM (inactive)	> 100 µM (inactive)	> 100 µM (inactive)	> 100 µM (inactive)	> 100 µM (inactive)	–	> 100 µM (inactive)
Cc1nc2c(n1CC(C)(C)C)C(=O)c1ccccc1C2=O	–	–	–	> 100 µM (inactive)	76.9 µM (inactive)	> 100 µM (inactive)	–	> 100 µM (inactive)	> 100 µM (inactive)
C/C(CC(=O)Nc1ccc(C)c(C)c1)=N\NC(N)=O	> 100 µM (inactive)	> 100 µM (inactive)	–	> 100 µM (inactive)	–	> 100 µM (inactive)	–	–	> 100 µM (inactive)
Cc1nc2nnc(C)n2c2c1C(=O)Nc1ccccc1N2	> 100 µM (inactive)	> 100 µM (inactive)	> 100 µM (inactive)	> 100 µM (inactive)	> 100 µM (inactive)	> 100 µM (inactive)	–	> 100 µM (inactive)	> 100 µM (inactive)
N=C(NNS(=O)(=O)c1ccccc1)Oc1ccc(Br)cc1Br	> 100 µM (inactive)	> 100 µM (inactive)	> 100 µM (inactive)	> 100 µM (inactive)	> 100 µM (inactive)	> 100 µM (inactive)	> 100 µM (inactive)	> 100 µM (inactive)	> 100 µM (inactive)
CCOC(=O)[C@H]1Nc2ccc(OC)cc2C2c3ccccc3CC21 (some centres not stated)	> 100 µM (inactive)	> 100 µM (inactive)	–	> 100 µM (inactive)	> 100 µM (inactive)	> 100 µM (inactive)	> 100 µM (inactive)	> 100 µM (inactive)	> 100 µM (inactive)
CS/C(=N/C(=O)c1ccccc1Cl)SCCS/C(=N\C(=O)c1ccccc1Cl)SC	> 100 µM (inactive)	> 100 µM (inactive)	–	–	> 100 µM (inactive)	> 100 µM (inactive)	–	> 100 µM (inactive)	> 100 µM (inactive)
OCCN(CCO)c1ncnc2c1sc(=S)n2-c1ccccc1	> 100 µM (inactive)	> 100 µM (inactive)	> 100 µM (inactive)	> 100 µM (inactive)	> 100 µM (inactive)	> 100 µM (inactive)	–	> 100 µM (inactive)	> 100 µM (inactive)
C/C(=N\NC(=N)N)C(CN1CCOCC1)C(c1ccccc1)c1c(O)c2ccccc2oc1=O (configuration not stated)	45.8 µM (inactive)	> 100 µM (inactive)	> 100 µM (inactive)	> 100 µM (inactive)	> 100 µM (inactive)	> 100 µM (inactive)	–	> 100 µM (inactive)	50.8 µM (inactive)
CCOC(=O)C12CCSC1C1(C#N)C(C#N)=CC2(N=P(c2ccccc2)(c2ccccc2)c2ccccc2)n2c(=O)n(-c3ccccc3)c(=O)n21 (configuration not stated)	29.4 µM (inactive)	33.4 µM (inactive)	–	28.8 µM (inactive)	–	65 µM (inactive)	70 µM (inactive)	24.3 µM (inactive)	68.5 µM (inactive)
OC1CC1Sc1ccccc1 (configuration not stated)	24.7 µM (inactive)	32.9 µM (inactive)	–	22.8 µM (inactive)	33 µM (inactive)	–	39.9 µM (inactive)	79.8 µM (inactive)	26.9 µM (inactive)
Cc1cc2c(c(C(N)=O)c1C)-c1cc(Cl)cc(Cl)c1C2=O	> 100 µM (inactive)	> 100 µM (inactive)	> 100 µM (inactive)	> 100 µM (inactive)	> 100 µM (inactive)	> 100 µM (inactive)	–	–	41.3 µM (inactive)
CC[C@@]1(OC(=O)CCC(=O)O)C(=O)OCc2c1cc1n(c2=O)Cc2cc3ccccc3nc2-1	0.046 µM (active)	0.239 µM (active)	0.492 µM (active)	2.01 µM (inactive)	< 0.0203 µM (active)	0.979 µM (active)	0.427 µM (active)	0.497 µM (active)	2.77 µM (inactive)
[N-]=[N+]=NC12CC3C4CC5CC3C(C1)C(C5)C4C2	> 100 µM (inactive)	> 100 µM (inactive)	> 100 µM (inactive)	> 100 µM (inactive)	> 100 µM (inactive)	–	> 100 µM (inactive)	> 100 µM (inactive)	> 100 µM (inactive)
CCN(CCCl)CCCCCNc1c2ccccc2nc2ccc(OC)cc12	0.334 µM (active)	0.476 µM (active)	–	0.444 µM (active)	0.184 µM (active)	0.655 µM (active)	–	0.251 µM (active)	0.736 µM (active)
